These are literature values, as cited in patent US5879680A, “Cloned DNA for synthesizing unique glucocerebrosidase” (The United States of America as represented by the …, priority 1995, dated 1999).

This data set deals with human placental glucocerebrosidase (Homo sapiens, UniProt P04062). To be noted: placental enzyme, reported by Basu et al, J.B.C. 259:1714, 1984.
human placental glucocerebrosidase, sequence (P04062 40-536): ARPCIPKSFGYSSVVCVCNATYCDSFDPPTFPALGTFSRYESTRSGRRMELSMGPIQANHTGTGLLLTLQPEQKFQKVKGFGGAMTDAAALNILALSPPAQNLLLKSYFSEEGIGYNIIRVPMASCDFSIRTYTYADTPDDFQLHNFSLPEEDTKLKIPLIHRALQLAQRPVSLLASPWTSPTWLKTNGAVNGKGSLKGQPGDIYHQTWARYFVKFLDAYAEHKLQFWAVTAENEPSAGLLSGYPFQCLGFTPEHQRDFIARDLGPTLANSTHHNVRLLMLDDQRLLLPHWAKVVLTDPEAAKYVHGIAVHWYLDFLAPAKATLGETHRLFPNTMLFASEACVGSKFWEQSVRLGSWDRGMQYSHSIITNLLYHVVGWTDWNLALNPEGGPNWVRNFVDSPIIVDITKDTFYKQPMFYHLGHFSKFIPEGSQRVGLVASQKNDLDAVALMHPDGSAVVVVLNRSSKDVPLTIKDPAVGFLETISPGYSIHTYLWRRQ

As usually defined, the Km is the concentration of substrate that gives half-maximal velocity. As to `Cc1cc(=O)oc2cc(O[C@@H]3O[C@H](CO)[C@@H](O)[C@H](O)[C@H]3O)ccc12` [4MUGP, 4-methylumbellifery-β-D-glucopyranoside], the Km is 8 mM.
